{"source": "patent US8609648B2", "about": "“Hepatitis C virus inhibitors” (Enanta Pharmaceuticals, Inc., priority 2009, dated 2013)"}
{"tested_on": "HCV 1b genotype replicon", "test": "HCV replicon assay (qRT-PCR or luciferase)", "format": "cell-based", "conditions": "Hepatitis C virus, read-out: Genotype-1b replicon EC50 Range", "from_the_text": "HCV replicon cell lines (kindly provided by R. Bartenschlager) isolated from colonies as described by Lohman et. al. (Lohman et al. (1999) Science 285: 110-113, expressly incorporated by reference in its entirety) and used for all experiments. The HCV replicon has the nucleic acid sequence set forth in EMBL Accession No.: AJ242651, the coding sequence of which is from nucleotides 1801 to 8406.\nThe coding sequence of the published HCV replicon was synthesized and subsequently assembled in a modified plasmid pBR322 (Promega, Madison, Wis.) using standard molecular biology techniques. One replicon cell line (“SGR 11-7”) stably expresses HCV replicon RNA which consists of (i) the HCV 5′UTR fused to the first 12 amino acids of the capsid protein, (ii) the neomycin phosphotransferase gene (neo), (iii) the IRES from encephalomyocarditis virus (EMCV), and (iv) HCV NS2 to NS5B genes and the HCV 3′UTR. Another replicon cell line (“Huh-luc/neo-ET”) described by Vrolijk et. al. (Vrolijk et. al. (2003) Journal of Virological Methods 110:201-209, expressly incorporated by reference in its entirety) stably expresses HCV replicon RNA which consists of (i) the HCV 5′UTR fused to the first 12 amino acids of the capsid protein, (ii) the firefly luciferase reporter gene, (iii) the ubiquitin gene, (iv) the neomycin phosphotransferase gene (neo), (v) the IRES from encephalomyocarditis virus (EMCV), and (vi) HCV NS3 to NS5B genes that harbor cell culture adaptive mutations (E1202G, T1280I, K1846T) and the HCV 3′UTR.\nThese cell lines were maintained at 37° C., 5% CO2, 100% relative humidity in DMEM (Cat#11965-084, Invitrogen), with 10% fetal calf serum (“FCS”, Invitrogen), 1% non-essential amino acids (Invitrogen), 1% of Glutamax (Invitrogen), 1% of 100× penicillin/streptomycin (Cat#15140-122, Invitrogen) and Geneticin (Cat#10131-027, Invitrogen) at 0.75 mg/ml or 0.5 mg/ml for 11-7 and Huh-luc/neo-ET cells, respectively.\nEC50 values of single agent compounds and combinations were determined by HCV RNA detection using quantitative RT-PCR, according to the manufacturer's instructions, with a TAQMAN® One-Step RT-PCR Master Mix Reagents Kit (Cat# AB 4309169, Applied Biosystems) on an ABI Model 7500 thermocycler. The TaqMan primers used for detecting and quantifying HCV RNA were obtained from Integrated DNA Technologies. HCV RNA was normalized to GAPDH RNA levels in drug-treated cells, which is detected and quantified using the Human GAPDH Endogenous Control Mix (Applied Biosystems, AB 4310884E). Total cellular RNA is purified from 96-well plates using the RNAqueous 96 kit (Ambion, Cat# AM1812). Chemical agent cytotoxicity is evaluated using an MTS assay according to the manufacturer's directions (Promega).\nSince clinical drug resistance often develops in viral infections following single agent therapies, there is a need to assess the additive, antagonistic, or synergistic properties of combination therapies. We used the HCV replicon system to assess the potential use of the compound of the present invention or in combination therapies with Interferon alpha, cyclosporine analogs and inhibitors targeting other HCV proteins. The acute effects of a single or combinations of drugs are studied in the “Huh-luc/neo-ET” replicon with each chemical agent titrated in an X or Y direction in a 6 point two-fold dilution curve centered around the EC50 of each drug. Briefly, replicon cells are seeded at 7,000 cells per well in 90 ul DMEM (without phenol red, Invitrogen Cat.#31053-036) per well with 10% FCS, 1% non-essential amino acids, 1% of Glutamax and 1% of 100× penicillin/streptomycin and incubated overnight at 37° C., 5% CO2, 100% relative humidity. […]", "units": {"EC50": "nM"}}
{"smiles": "COC(=O)NC1CC[C@@H]2CC[C@@H](c3ncc(-c4ccc(-c5ccc(-c6cnc([C@@H]7CCCN7C(=O)[C@@H](NC(=O)OC)C(C)C)[nH]6)cc5)cc4)[nH]3)N2C1=O", "note": "(mixture of isomers) [Example 371]", "EC50": "< 1"}
{"smiles": "COC(=O)N[C@H]1CC[C@@H]2SC[C@@H](c3ncc(-c4ccc(-c5ccc(-c6cnc([C@@H]7CCCN7C(=O)[C@@H](NC(=O)OC)C(C)C)[nH]6)cc5)cc4)[nH]3)N2C1=O", "note": "[Example 368]", "EC50": "< 1"}
{"smiles": "COC(=O)N[C@H]1CC[C@H]2CC[C@@H](c3ncc(-c4ccc(-c5ccc(-c6cnc([C@@H]7CCCN7C(=O)[C@@H](NC(=O)OC)C(C)C)[nH]6)cc5)cc4)[nH]3)N2C1=O", "note": "[Example 369]", "EC50": "< 1"}
{"smiles": "COC(=O)N[C@H](C(=O)N1CCC[C@H]1c1ncc(-c2ccc(-c3ccc(-c4cnc([C@@H]5CC[C@@H]6CC[C@@H](NC(=O)OC)C(=O)N65)[nH]4)cc3)cc2)[nH]1)C(C)C", "note": "[Example 370]", "EC50": "< 1"}
{"smiles": "COC(=O)N[C@H](C(=O)N1CCC[C@H]1c1ncc(-c2ccc(-c3ccc(-c4cnc([C@@H]5CS[C@@H]6CCCC(=O)N65)[nH]4)cc3)cc2)[nH]1)C(C)C", "note": "[Example 372]", "EC50": "< 1"}
{"smiles": "COC(=O)N[C@H](C(=O)N1CCC[C@H]1c1ncc(-c2ccc(-c3ccc(-c4cnc([C@@H]5CS[C@H]6CCCC(=O)N65)[nH]4)cc3)cc2)[nH]1)C(C)C", "note": "[Example 373]", "EC50": "< 1"}
{"smiles": "COC(=O)N[C@H](C(=O)N1CCC[C@H]1c1ncc(-c2ccc(-c3ccc(-c4cnc([C@@H]5CC[C@H]6CCCCC(=O)N65)[nH]4)cc3)cc2)[nH]1)C(C)C", "note": "[Example 374]", "EC50": "< 1"}
{"smiles": "COC(=O)N[C@H](C(=O)N1CCC[C@H]1c1ncc(-c2ccc(-c3ccc(-c4cnc([C@@H]5CC[C@@H]6CCCCC(=O)N65)[nH]4)cc3)cc2)[nH]1)C(C)C", "note": "[Example 375]", "EC50": "< 1"}
{"smiles": "COC(=O)N[C@H]1CCC[C@@H]2CC[C@@H](c3ncc(-c4ccc(-c5ccc(-c6cnc([C@@H]7CCCN7C(=O)[C@@H](NC(=O)OC)C(C)C)[nH]6)cc5)cc4)[nH]3)N2C1=O", "note": "[Example 376]", "EC50": "< 1"}
